Publication doi:10.1101/525329v1, “The large loop-8 insert in Saccharomyces cerevisiae kinesin-5 Cin8 is necessary and sufficient to promote noncanonical microtubule interactions” (biorxiv, 2019)

Experiments:
Test in all cases: NADH-coupled steady-state ATPase assay
Eg5-KL8 = system: T1, Eg5-KL8; type: biochemical, Homo sapiens; conditions: high ionic strength (75 mM KCl, 88 mM IS), 10 μM paclitaxel-stabilized bovine microtubules, 2 mM MgCl2, pH 7.2, 298 K; kcat from microtubule-dependent fit; read-out: Km,ATP
T1 construct: gene KIF11; monomeric Eg5 motor domain with Kip1 loop-8 insert; bacterial expression, pET16b

Eg5-CL8 = system: T2, Eg5-CL8; type: biochemical, Homo sapiens; conditions: low ionic strength (7.5 mM KCl, 21 mM IS), 2 μM paclitaxel-stabilized bovine microtubules, 2 mM MgCl2, pH 7.2, 298 K; kcat from microtubule-dependent fit at 1 mM ATP
T2 construct: gene KIF11; monomeric Eg5 motor domain with 99-residue Cin8 loop-8 insert; bacterial expression, pET16b

Cin8-EL8 = system: T3, Cin8-EL8; type: biochemical, Saccharomyces cerevisiae; conditions: low ionic strength (7.5 mM KCl, 21 mM IS), 5 μM paclitaxel-stabilized bovine microtubules, 2 mM MgCl2, pH 7.2, 298 K; kcat from microtubule-dependent fit; read-out: Km,ATP
T3 construct: monomeric Cin8 motor domain with Eg5 loop-8 insert; bacterial expression, pET32b

Structure (SMILES): Nc1ncnc2c1ncn2[C@@H]1O[C@H](COP(=O)(O)OP(=O)(O)OP(=O)(O)O)[C@@H](O)[C@H]1O [ATP]
- Km (Eg5-KL8): 16 ± 4 µM
- Km (Eg5-CL8): 40 ± 11 µM
- Km (Cin8-EL8): 39 ± 7 µM
